From a compilation of properties of binary mixtures (doi:10.1016/j.molliq.2010.03.018)

Test: xn = mol fraction of the nth substance listed
Details: 101 kPa

COCCOCCO + CCCC[n+]1ccn(C)c1.F[P-](F)(F)(F)(F)F
speed of sound [m/s]
Details | x1 = 0.1008 | x1 = 0.2217 | x1 = 0.3398 | x1 = 0.4582 | x1 = 0.519 | x1 = 0.6876 | x1 = 0.8005 | x1 = 0.8758 | x1 = 0.9136
288.15 K | – | 1469 | 1473 | 1478.1 | 1480.6 | 1484.3 | – | – | 1474.1
298.15 K | 1443.7 | – | 1448 | 1452.2 | – | 1455.5 | 1451.5 | 1445.7 | 1441.7
308.15 K | 1420.3 | 1420.8 | 1423.5 | 1426.6 | 1427.8 | – | – | 1414.2 | 1409.4

COCC(C)O (stereo not drawn) + CCCC[n+]1ccn(C)c1.F[P-](F)(F)(F)(F)F
speed of sound [m/s]
Details | x1 = 0.0426 | x1 = 0.126 | x1 = 0.2396 | x1 = 0.4116 | x1 = 0.5071 | x1 = 0.6847 | x1 = 0.8536 | x1 = 0.9447
288.15 K | 1464.5 | 1458.3 | 1449.3 | – | 1420.4 | 1390.4 | – | 1322.3
298.15 K | 1439.7 | 1433.7 | 1424.6 | – | 1393.6 | 1360.9 | 1316.9 | 1286.9
308.15 K | 1416.2 | – | 1400.6 | 1381.5 | 1367.3 | 1331.8 | – | 1251.5

CCOCC(C)O (stereo not drawn) + CCCC[n+]1ccn(C)c1.F[P-](F)(F)(F)(F)F
speed of sound [m/s]
Details | x1 = 0.0532 | x1 = 0.172 | x1 = 0.255 | x1 = 0.3298 | x1 = 0.5031 | x1 = 0.6555 | x1 = 0.8423 | x1 = 0.9 | x1 = 0.9474
288.15 K | 1462 | 1449.6 | 1437.8 | – | 1390.7 | – | – | – | –
298.15 K | 1437 | 1424.7 | 1412.6 | 1399.7 | 1363.1 | 1325.5 | – | 1260.4 | 1247.7
308.15 K | 1414.1 | 1400.1 | – | 1374.8 | 1336.2 | 1296 | 1242.1 | 1225.4 | –
